Test results taken from US9182385B2, “Methods for diagnosis, prognosis and methods of treatment” (NODALITY, INC., priority 2007, dated 2015).

What was measured:
CLL cells = assay: Phospho-specific multiparametric flow cytometry of BCR signaling in CLL patient samples; format: cell-based, human
Description: (§1) Ramos cells were maintained and cultured using methods known in the art. Cells from CLL patients were obtained using methods known in the art.
(§2) The cell suspension was added drop-wise into media. […] Cells were incubated at 37° C. for 2 hours. […] Cells were aliquoted into wells.
(§3) Cells were washed twice. […] Cocktail • (i) CD3 pac blue=160 μl • (ii) CD4 APC=80 μl • (iii) CD8 PE Cy7=80 μl • (iv) CD5 PE Cy5=400 μl • (v) CD20 PerCP Cy5.5=800 μl • (vi) p-Erk=800 μl • (vii) p-BLNK=800 μl • (viii) p-Syk/ZAP70=800 μl • b. […] Each well received 100 μl of this cocktail mix.
Cells were prepared and stained as described above.

[1] = test system: blood B cells from healthy donors
Description: BCR cross-linking and preparation for staining: Cells were thawed at 37° C. in a water bath until partially thawed (˜50%). Cells were thawed into 5% FBS/RPMI at room temperature. The cell suspension was added drop-wise into media. Cells were centrifuged at 900 RPM for 10 minutes with no brake. The supernatants were decanted and pellets resuspended in 25 milliliters (ml) of media. Cells were re-centrifuged at 900 RPM for 10 minutes, decanted again and resuspended in 5 ml of 1% FBS/RPMI. Cells were counted with a hemocytometer using trypan blue staining. The concentration of the cells was adjusted as necessary to reduce crowding. Cells were incubated at 37° C. for 2 hours. The final cell concentration, including additives and reagents (e.g. stimulant, Fab fragment, H2O2, aqua, etc.) was 1.6 million/ml. Cells were aliquoted into wells. […]
Analysis by Flow Cytometry: Between 10,000 and 100,000 un-gated events were collected for each sample on the BD LSR II flow cytometry machine. The fluorescent anti-bodies directed to extra-cellular markers (i.e. CD3, CD4, CD8, CD5 and CD20) were used to mark the cells and a hierarchical gating strategy was used to identify the B-Cells and mature B-Cell population among the recorded events as described below: • a. […] All the recorded events were also marked by the following intra-cellular markers p-Erk, p-Syk/Zap70, and p-BLNK. […]

Ramos cells = assay: Phospho-specific multiparametric flow cytometry of BCR signaling in Ramos cells; format: cell-based; conditions: FIG. 1, fluorescence above autofluorescence and background
Description: as §1, §2, §3

[2] = CD20+/CD5+ cell population of CLL samples, kinetics

Compound	PLCγ2 phosphorylation (CLL cells; [2])	phosphorylation of rpS6 (CLL cells; [2])	levels of phosphorylated p72SYK/p70ZAP, ERK1/2, BLNK, and PLCγ2 (CLL cells; CLL cells of some patients, independent of surface F(ab)2anti-μ ligation)	activation of Erk and Syk (CLL cells; CLL samples, inhibition of phosphatases, FIG. 6)	tonic BCR signaling revealed by inhibition of phosphatases (CLL cells; other CLL samples, FIG. 10)	responsiveness (phosphorylated p72SYK/p70ZAP, ERK1/2, BLNK, PLCγ2) (CLL cells; other CLL-B cells, even in the presence of F(ab)2anti-μ)	phosphorylation of p72SYK/p70ZAP, ERK1/2, BLNK, PLCγ2 ([1]; blood B cells from healthy donors)	activation of signaling post BCR ([1]; normal B cells, H2O2 by itself, FIG. 7)	activation of p-Erk across patients (CLL cells; CLL patient samples, regardless of ZAP70 expression (summary))	p-Erk and p-Syk phosphorylation (CLL cells; CLL samples with low and high frequency of ZAP70, FIG. 5)	Erk and Syk phosphorylation (CLL cells; other CLL samples, FIG. 9)	activation of Erk (CLL cells; pheresed CLL samples, FIG. 3)	activation of p-Erk and p-Syk/pZap70 (Ramos cells)
OO [H2O2, hydrogen peroxide]	increased	attenuates	induced high-levels	activates	does not reveal strong tonic BCR signaling	significantly less responsive	failed to elicit a substantial increase	incapable of activating post BCR by itself					
CCCCCCCCCCCCCC(=O)O[C@@H]1[C@@H](C)[C@@]2(O)[C@@H](C=C(CO)C[C@]3(O)C(=O)C(C)=C[C@@H]23)[C@@H]2C(C)(C)[C@]12OC(C)=O [PMA]									comparable in all patients	modest	modest	activates	activates
